BindingDB's records for patent US8592379 (Kyoto University, 2013)

Target: KiSS-1 receptor (Homo sapiens, UniProt Q969F8)
Experiment: Binding Assay

Chain of KiSS-1 receptor (Q969F8 whole entry): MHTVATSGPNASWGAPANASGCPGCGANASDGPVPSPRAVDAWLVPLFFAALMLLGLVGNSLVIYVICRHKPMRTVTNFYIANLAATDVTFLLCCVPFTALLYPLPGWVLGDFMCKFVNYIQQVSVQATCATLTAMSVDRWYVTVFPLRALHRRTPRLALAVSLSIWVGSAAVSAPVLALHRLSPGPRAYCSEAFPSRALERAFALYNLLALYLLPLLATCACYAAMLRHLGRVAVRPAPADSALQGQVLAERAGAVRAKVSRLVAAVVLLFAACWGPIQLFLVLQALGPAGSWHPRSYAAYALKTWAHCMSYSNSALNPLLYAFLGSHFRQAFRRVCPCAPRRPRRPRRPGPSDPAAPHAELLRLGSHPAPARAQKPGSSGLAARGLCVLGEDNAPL

IC50: 0.24 nM
SMILES: CNC[C@@H](O)CC(CC(C)C)C(C)=O (stereo partly specified) [US8592379, 37]
